# Test results taken from BindingDB's records for patent US12534477 (Hangzhou Zhongmeihuadong Pharmaceutical, 2026).
# Biological target: T1, Ketohexokinase (Human, UniProt P50053)
# T1 sequence (P50053 whole entry): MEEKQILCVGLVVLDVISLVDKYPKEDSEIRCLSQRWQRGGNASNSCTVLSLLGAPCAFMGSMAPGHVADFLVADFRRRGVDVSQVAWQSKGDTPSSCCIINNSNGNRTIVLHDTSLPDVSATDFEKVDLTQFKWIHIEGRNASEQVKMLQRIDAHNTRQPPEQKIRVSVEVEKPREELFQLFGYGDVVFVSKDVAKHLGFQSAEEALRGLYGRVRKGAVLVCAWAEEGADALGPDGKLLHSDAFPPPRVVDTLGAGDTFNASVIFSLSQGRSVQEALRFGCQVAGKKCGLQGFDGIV
# Assay: Ketohexokinase Assay (KHK Assay)
# Experimental: a) Kinase Reaction1. preparation of Dilution Buffer containing 50 mM hydroxyethylpiperazine […] (Hepes), 140 mM KCl, 3.5 mM MgCl2, and 0.01% bovine serum albumin (BSA), pH 7.4.2. A working solution of ketohexokinase at 2.5 times concentration was prepared with Dilution Buffer, with 50 nM ketohexokinase and 12.5 mM fructose.3. A working solution of adenosine triphosphate (ATP) at 2.5 times concentration was prepared with Dilution Buffer, with a concentration of 250 μM.4. Each compound was diluted starting at a concentration of 500 μM, 3-fold diluted for 9 concentration points. The final concentration of the compound in the reaction system started from 10 μM and the final concentration of dimethyl sulfoxide (DMSO) was 2%.5. A 96-well plate was prepared as a reaction plate, and was incubated at room temperature for 5 min after adding 6 μL ketohexokinase working solution at 2.5 times concentration to each well and further adding 3 μL compound working solution to each well.6. The first well of each row was a positive control for a compound, i.e. the same volume of the buffer was added to replace the compound […]. The last well was a negative control for the compound, i.e. the same volume of Dilution Buffer was added instead of the compound.7. 6 μL ATP working solution was added to each well in a 96-well reaction plate to initiate the kinase reaction. The kinase reaction was incubated in a constant temperature heater at 28° C. for 1 h.b) ADP-Glo assay1. A384 plate was prepared as a detection plate, and firstly 5 μL ADP-Glo reagent was added.2. 5 μL kinase reaction mixture from the reaction plate was added to each well and incubated in a constant temperature heater at 28° C. for 30 min.3. 10 μL kinase detection reagent was added to each well and incubated in a constant temperature heater at 28° C. for 30 min.4. The detection plate was placed in an EnVision multilabel reader to read the chemiluminescent signal.
row,IC50,SMILES
1,0.028 µM,"C[C@H]1CCN1c1nc(N2CC3(C[C@H]3C(=O)O)C2)c2c(n1)C(F)(F)CC2 [US12534477, Compound WX043]"
2,0.017 µM,"C[C@H]1CCN1c1nc(Nc2ccc(C(=O)O)c(C(F)(F)F)c2)c2ccsc2n1 [US12534477, Compound WX013]"
3,0.021 µM,"C[C@H]1CCN1c1nc(N2CC3(C[C@@H]3C(=O)O)C2)c2c(n1)C(F)(F)CC2 [US12534477, Compound WX042]"
4,0.036 µM,"C[C@H]1CCN1c1nc(N2CC3(CC3C(=O)O)C2)c2c(n1)C(F)(F)CC2 (some centres undefined) [US12534477, Compound WX035]"
